Laboratory results taken from ChEMBL document CHEMBL1909046, “DrugMatrix in vitro pharmacology data”.

What was measured:
[1] = molecular target: Vasopressin V1a receptor (Homo sapiens, UniProt P37288); format: cell membranes, Membrane; settings: hek293; also: in other assays of this panel Not Active means under 50% inhibition at 10 µM
[2] = molecular target: T1, Amine oxidase [flavin-containing] A (Homo sapiens, UniProt P21397); assay: DRUGMATRIX: Monoamine Oxidase MAO-A enzyme inhibition (substrate: Kynuramine); parameters: species or system BTI-TN-5B1-4; settings: bti-tn-5b1-4; Not Active = under 50% inhibition at 10 µM
T1 sequence (P21397 whole entry): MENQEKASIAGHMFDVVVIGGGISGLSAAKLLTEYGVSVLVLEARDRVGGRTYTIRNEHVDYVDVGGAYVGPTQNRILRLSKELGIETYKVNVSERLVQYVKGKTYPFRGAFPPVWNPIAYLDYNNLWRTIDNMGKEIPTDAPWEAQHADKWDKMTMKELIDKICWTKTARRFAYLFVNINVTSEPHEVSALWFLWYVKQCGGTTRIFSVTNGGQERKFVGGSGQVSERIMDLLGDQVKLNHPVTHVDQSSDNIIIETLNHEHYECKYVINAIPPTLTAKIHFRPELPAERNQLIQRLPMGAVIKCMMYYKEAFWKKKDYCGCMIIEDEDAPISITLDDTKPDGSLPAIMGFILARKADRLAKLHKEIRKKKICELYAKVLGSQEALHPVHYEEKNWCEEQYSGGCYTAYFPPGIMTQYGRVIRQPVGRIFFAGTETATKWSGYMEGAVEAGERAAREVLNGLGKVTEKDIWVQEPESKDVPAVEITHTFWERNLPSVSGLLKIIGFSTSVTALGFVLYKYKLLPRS

[3] = DRUGMATRIX: Phorbol Ester radioligand binding (ligand: [3H] PDBu); format: cell membranes, Mus musculus, ICR, Brain, Membrane; settings: Not Active = under 50% inhibition at 10 µM
[4] = molecular target: T2, Alpha-1B adrenergic receptor (Rattus norvegicus, UniProt P15823); assay: DRUGMATRIX: Alpha-1B adrenergic receptor radioligand binding (ligand: prazosin); format: cell membranes, Wistar, Liver, Membrane; settings: Not Active = under 50% inhibition at 10 µM
T2 sequence (P15823 whole entry): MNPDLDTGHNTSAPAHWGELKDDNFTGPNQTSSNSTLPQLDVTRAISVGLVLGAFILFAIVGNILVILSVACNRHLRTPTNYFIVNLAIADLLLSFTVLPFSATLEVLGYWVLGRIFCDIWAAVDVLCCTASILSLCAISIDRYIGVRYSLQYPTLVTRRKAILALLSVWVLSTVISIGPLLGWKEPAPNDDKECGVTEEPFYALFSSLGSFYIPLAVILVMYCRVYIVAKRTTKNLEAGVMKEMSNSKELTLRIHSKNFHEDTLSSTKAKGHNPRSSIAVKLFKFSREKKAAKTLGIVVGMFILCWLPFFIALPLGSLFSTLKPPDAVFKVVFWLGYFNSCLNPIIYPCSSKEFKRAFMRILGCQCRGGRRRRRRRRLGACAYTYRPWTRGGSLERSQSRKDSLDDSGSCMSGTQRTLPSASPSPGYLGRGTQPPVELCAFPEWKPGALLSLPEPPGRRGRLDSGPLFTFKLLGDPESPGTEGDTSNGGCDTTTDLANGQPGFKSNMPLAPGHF

[5] = molecular target: T3, Adenosine receptor A1 (Homo sapiens, UniProt P30542); format: cell membranes, Membrane; settings: cho;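 also: radioligand binding assay at the adenosine A1 receptor, with DPCPX serving as the labelled ligand; in other assays of this panel Not Active means under 50% inhibition at 10 µM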
T3 sequence (P30542 whole entry): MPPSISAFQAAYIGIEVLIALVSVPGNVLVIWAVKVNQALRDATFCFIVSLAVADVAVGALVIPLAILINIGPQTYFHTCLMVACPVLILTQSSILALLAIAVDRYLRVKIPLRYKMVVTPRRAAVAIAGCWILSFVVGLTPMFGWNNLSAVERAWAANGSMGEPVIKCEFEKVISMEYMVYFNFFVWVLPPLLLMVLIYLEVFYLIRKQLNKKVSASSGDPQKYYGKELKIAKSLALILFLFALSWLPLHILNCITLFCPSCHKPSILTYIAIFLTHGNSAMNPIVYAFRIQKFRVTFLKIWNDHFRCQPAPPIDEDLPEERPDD

[6] = molecular target: T4, Neuropeptide Y receptor type 1 (Homo sapiens, UniProt P25929); format: cell membranes, Membrane; settings: sk-n-mc; also: in other assays of this panel Not Active means under 50% inhibition at 10 µM
T4 sequence (P25929 whole entry): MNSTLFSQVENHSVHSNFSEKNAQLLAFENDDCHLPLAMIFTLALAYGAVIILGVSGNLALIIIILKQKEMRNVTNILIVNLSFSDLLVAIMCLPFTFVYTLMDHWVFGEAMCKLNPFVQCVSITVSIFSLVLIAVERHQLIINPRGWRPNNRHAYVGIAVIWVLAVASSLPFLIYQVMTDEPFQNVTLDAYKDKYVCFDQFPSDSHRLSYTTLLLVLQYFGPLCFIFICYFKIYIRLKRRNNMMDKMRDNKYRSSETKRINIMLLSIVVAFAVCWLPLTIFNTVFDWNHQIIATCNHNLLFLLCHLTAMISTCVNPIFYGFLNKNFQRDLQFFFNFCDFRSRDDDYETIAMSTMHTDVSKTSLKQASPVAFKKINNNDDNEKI

[7] = DRUGMATRIX: beta-Lactamase enzyme inhibition (substrate: Nitrocefin); parameters: species or system Bacillus cereus; settings: Not Active = under 50% inhibition at 10 µM
[8] = molecular target: Sodium-dependent dopamine transporter (Homo sapiens, UniProt Q01959); assay: DRUGMATRIX: Dopamine Transporter radioligand binding (ligand: [125I] RTI-55); format: cell membranes, CHO-K1, Membrane; settings: cho-k1; Not Active = under 50% inhibition at 10 µM
Sodium-dependent dopamine transporter, sequence (Q01959 whole entry): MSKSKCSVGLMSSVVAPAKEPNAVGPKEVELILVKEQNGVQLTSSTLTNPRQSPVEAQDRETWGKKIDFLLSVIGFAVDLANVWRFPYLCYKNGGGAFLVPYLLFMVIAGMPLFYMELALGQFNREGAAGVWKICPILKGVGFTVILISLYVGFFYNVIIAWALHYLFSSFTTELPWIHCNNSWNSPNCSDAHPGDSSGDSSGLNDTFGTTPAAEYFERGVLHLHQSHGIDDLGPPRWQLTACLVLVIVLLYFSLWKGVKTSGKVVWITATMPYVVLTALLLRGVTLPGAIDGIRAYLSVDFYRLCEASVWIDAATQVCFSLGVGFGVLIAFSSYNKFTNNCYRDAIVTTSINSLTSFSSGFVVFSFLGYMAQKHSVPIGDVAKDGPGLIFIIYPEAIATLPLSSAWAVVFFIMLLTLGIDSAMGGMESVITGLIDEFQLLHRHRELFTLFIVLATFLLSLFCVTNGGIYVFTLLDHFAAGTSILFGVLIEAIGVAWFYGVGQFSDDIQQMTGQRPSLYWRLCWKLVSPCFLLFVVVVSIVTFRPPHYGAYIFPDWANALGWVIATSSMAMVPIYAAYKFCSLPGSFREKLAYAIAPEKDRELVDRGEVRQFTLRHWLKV

Vasopressin V1a receptor, sequence (P37288 whole entry): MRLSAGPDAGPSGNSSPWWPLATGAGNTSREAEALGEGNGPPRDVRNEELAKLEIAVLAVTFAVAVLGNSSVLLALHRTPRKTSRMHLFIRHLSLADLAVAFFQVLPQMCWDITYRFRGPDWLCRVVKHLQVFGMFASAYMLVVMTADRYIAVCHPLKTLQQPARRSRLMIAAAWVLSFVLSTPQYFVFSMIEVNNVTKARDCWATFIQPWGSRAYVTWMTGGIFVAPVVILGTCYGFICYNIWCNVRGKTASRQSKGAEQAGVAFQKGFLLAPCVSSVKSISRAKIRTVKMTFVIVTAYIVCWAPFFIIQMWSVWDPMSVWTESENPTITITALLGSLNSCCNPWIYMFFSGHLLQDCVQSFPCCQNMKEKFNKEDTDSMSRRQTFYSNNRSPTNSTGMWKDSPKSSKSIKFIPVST

COc1cc2c(c3oc(=O)c4c(c13)CCC4=O)[C@@H]1C=CO[C@@H]1O2 [AFLATOXIN]
Not Active: IC50 [1] | Ki [1] | IC50 [2] | Ki [2] | IC50 [3] | Ki [3] | IC50 [4] | Ki [4] | IC50 [5] | Ki [5] | IC50 [6] | Ki [6] | IC50 [7] | Ki [7] | IC50 [8] | Ki [8]

CC1(C)O[C@@H]2C[C@H]3[C@@H]4C[C@H](F)C5=CC(=O)CC[C@]5(C)[C@H]4[C@@H](O)C[C@]3(C)[C@]2(C(=O)CO)O1 [FLURANDRENOLIDE]
Not Active: IC50 [1] | IC50 [2] | IC50 [3] | Ki [3] | IC50 [4] | IC50 [5] | IC50 [6] | IC50 [7] | Ki [7] | IC50 [8]

CC1(C)O[C@@H]2C[C@H]3[C@@H]4C[C@H](F)C5=CC(=O)C=C[C@]5(C)[C@@]4(F)[C@@H](O)C[C@]3(C)[C@]2(C(=O)CO)O1 [FLUOCINOLONE ACETONIDE]
Not Active: IC50 [1] | IC50 [2] | IC50 [3] | Ki [3] | IC50 [4] | IC50 [5] | IC50 [6] | IC50 [7] | Ki [7] | IC50 [8]

CC(C(=O)O)c1cccc(C(=O)c2ccccc2)c1 (stereo unspecified) [KETOPROFEN]
Not Active: IC50 [1] | IC50 [2] | IC50 [3] | Ki [3] | IC50 [4] | IC50 [5] | IC50 [6] | IC50 [7] | Ki [7] | IC50 [8]

NC(=O)NO [HYDROXYUREA]
Not Active: IC50 [1] | IC50 [2] | IC50 [3] | Ki [3] | IC50 [4] | IC50 [5] | IC50 [6] | IC50 [7] | Ki [7] | IC50 [8]

O=c1ccc2ccccc2o1 [COUMARIN]
Not Active: IC50 [1] | IC50 [2] | IC50 [3] | Ki [3] | IC50 [4] | IC50 [5] | IC50 [6] | IC50 [7] | Ki [7] | IC50 [8]

CN1C(=O)COc2c(C(=O)NC3CN4CCC3CC4)cc(Cl)cc21 (stereo unspecified) [AZASETRON]
Not Active: IC50 [1] | IC50 [2] | IC50 [3] | Ki [3] | IC50 [4] | IC50 [5] | IC50 [6] | IC50 [7] | Ki [7] | IC50 [8]

C[C@H]1C[C@H]2[C@@H]3CCC4=CC(=O)C=C[C@]4(C)[C@@]3(Cl)[C@@H](O)C[C@]2(C)[C@@]1(O)C(=O)CO [BECLOMETHASONE]
Not Active: IC50 [1] | IC50 [2] | IC50 [3] | Ki [3] | IC50 [4] | IC50 [5] | IC50 [6] | IC50 [7] | Ki [7] | IC50 [8]

Cc1cc(=O)n(-c2ccccc2)n1C [ANTIPYRINE]
Not Active: IC50 [1] | IC50 [2] | IC50 [3] | Ki [3] | IC50 [4] | IC50 [5] | IC50 [6] | IC50 [7] | Ki [7] | IC50 [8]

COc1cccc2c1C(=O)c1c(O)c3c(c(O)c1C2=O)C[C@@](O)(C(=O)CO)C[C@@H]3O[C@H]1C[C@H](N)[C@@H](O)[C@H](C)O1 [EPIRUBICIN]
Not Active: IC50 [1] | IC50 [2] | IC50 [3] | Ki [3] | IC50 [4] | IC50 [5] | IC50 [6] | IC50 [7] | Ki [7] | IC50 [8]

C[C@](O)(CS(=O)(=O)c1ccc(F)cc1)C(=O)Nc1ccc(C#N)c(C(F)(F)F)c1 [(R)-BICALUTAMIDE]
Not Active: IC50 [1] | IC50 [2] | IC50 [3] | Ki [3] | IC50 [4] | IC50 [5] | IC50 [6] | IC50 [7] | Ki [7] | IC50 [8]

COc1ccc2c(c1)[C@]13CCCC[C@@H]1[C@H](C2)N(C)CC3 [DEXTROMETHORPHAN]
Not Active: IC50 [1] | IC50 [2] | IC50 [3] | Ki [3] | IC50 [4] | IC50 [5] | IC50 [6] | IC50 [7] | Ki [7] | IC50 [8]

COP(=O)(OC)OC=C(Cl)Cl [DICHLORVOS]
Not Active: IC50 [1] | IC50 [2] | IC50 [3] | Ki [3] | IC50 [4] | IC50 [5] | IC50 [6] | IC50 [7] | Ki [7] | IC50 [8]

CCN[C@@H]1C[C@H](N)[C@@H](O[C@H]2OC(CN)=CC[C@H]2N)[C@H](O)[C@H]1O[C@H]1OC[C@](C)(O)[C@H](NC)[C@H]1O [NETILMICIN]
Not Active: IC50 [1] | IC50 [2] | IC50 [3] | Ki [3] | IC50 [4] | IC50 [5] | IC50 [6] | IC50 [7] | Ki [7] | IC50 [8]

CN(C)/N=N/c1[nH]cnc1C(N)=O [DACARBAZINE]
Not Active: IC50 [1] | IC50 [2] | IC50 [3] | Ki [3] | IC50 [4] | IC50 [5] | IC50 [6] | IC50 [7] | Ki [7] | IC50 [8]

O=NN(CCCl)C(=O)NCCCl [CARMUSTINE]
Not Active: IC50 [1] | IC50 [2] | IC50 [3] | Ki [3] | IC50 [4] | IC50 [5] | IC50 [6] | IC50 [7] | Ki [7] | IC50 [8]

Oc1ccc(OCc2ccccc2)cc1 [MONOBENZONE]
Not Active: IC50 [1] | IC50 [2] | IC50 [3] | Ki [3] | IC50 [4] | IC50 [5] | IC50 [6] | IC50 [7] | Ki [7] | IC50 [8]

O=C1CC2(CCCC2)CC(=O)N1CCCCN1CCN(c2ncccn2)CC1 [BUSPIRONE]
Not Active: IC50 [1] | IC50 [2] | IC50 [3] | Ki [3] | IC50 [4] | IC50 [5] | IC50 [6] | IC50 [7] | Ki [7] | IC50 [8]

Nc1ccn([C@@H]2CS[C@H](CO)O2)c(=O)n1 [LAMIVUDINE]
Not Active: IC50 [1] | IC50 [2] | IC50 [3] | Ki [3] | IC50 [4] | IC50 [5] | IC50 [6] | IC50 [7] | Ki [7] | IC50 [8]
